Several values for one entry are separate records, joined by “and”; a condition that tells them apart may be missing. Identical values can stand only once. Inconclusive results and toxic doses are left out.
Tested on: L1210 leukemia ip in BDF1 mice, survival T/C
Test: NCI In Vivo Anticancer Drug Screen. Data for tumor model L1210 Leukemia (intraperitoneal) in B6D2F1 (BDF1) mice
Conditions: endpoint: mean survival time, higher = longer survival
In short: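 Survival endpoint. Drug-treated group vs vehicle group, expressed as T divided by C. Tumor passaged by transplantation.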

[1] = dose: 50.0 mg/kg/injection, schedule: Q01DX009 (ip), vehicle: Klucel (hydroxypropylcellulose) (HPC)
[2] = dose: 100.0 mg/kg/injection, schedule: Q01DX009 (ip), vehicle: Klucel (hydroxypropylcellulose) (HPC)
[3] = dose: 100.0 mg/kg/injection, schedule: Q04DX003 (ip), vehicle: saline
[4] = dose: 200.0 mg/kg/injection, schedule: Q01DX009 (ip), vehicle: Klucel (hydroxypropylcellulose) (HPC)
[5] = dose: 200.0 mg/kg/injection, schedule: Q04DX003 (ip), vehicle: saline
[6] = dose: 100.0 mg/kg/injection, schedule: Q04DX002 (ip), vehicle: Klucel (hydroxypropylcellulose) (HPC)
[7] = dose: 200.0 mg/kg/injection, schedule: Q04DX002 (ip), vehicle: Klucel (hydroxypropylcellulose) (HPC)
[8] = dose: 400.0 mg/kg/injection, schedule: Q04DX002 (ip), vehicle: Klucel (hydroxypropylcellulose) (HPC)
[9] = dose: 100.0 mg/kg/injection, schedule: Q01DX001 (ip), vehicle: carboxymethylcellulose (CMC)
[10] = dose: 200.0 mg/kg/injection, schedule: Q01DX001 (ip), vehicle: carboxymethylcellulose (CMC)
[11] = dose: 400.0 mg/kg/injection, schedule: Q01DX001 (ip), vehicle: carboxymethylcellulose (CMC)
[12] = dose: 100.0 mg/kg/injection, schedule: Q01DX009 (ip), vehicle: saline with Tween-80
[13] = dose: 100.0 mg/kg/injection, schedule: Q04DX003 (ip), vehicle: saline with Tween-80
[14] = dose: 200.0 mg/kg/injection, schedule: Q04DX003 (ip), vehicle: saline with Tween-80
[15] = dose: 400.0 mg/kg/injection, schedule: Q04DX003 (ip), vehicle: saline with Tween-80
[16] = dose: 200.0 mg/kg/injection, schedule: Q01DX009 (ip), vehicle: saline with Tween-80
[17] = dose: 400.0 mg/kg/injection, schedule: Q01DX009 (ip), vehicle: saline with Tween-80
[18] = dose: 100.0 mg/kg/injection, schedule: Q01DX001 (ip), vehicle: Klucel (hydroxypropylcellulose) (HPC)
[19] = dose: 200.0 mg/kg/injection, schedule: Q01DX001 (ip), vehicle: Klucel (hydroxypropylcellulose) (HPC)
[20] = dose: 400.0 mg/kg/injection, schedule: Q01DX001 (ip), vehicle: Klucel (hydroxypropylcellulose) (HPC)
[21] = dose: 100.0 mg/kg/injection, schedule: Q04DX003 (ip), vehicle: Klucel (hydroxypropylcellulose) (HPC)
[22] = dose: 200.0 mg/kg/injection, schedule: Q04DX003 (ip), vehicle: Klucel (hydroxypropylcellulose) (HPC)
[23] = dose: 400.0 mg/kg/injection, schedule: Q04DX003 (ip), vehicle: Klucel (hydroxypropylcellulose) (HPC)
[24] = dose: 400.0 mg/kg/injection, schedule: Q01DX009 (ip), vehicle: Klucel (hydroxypropylcellulose) (HPC)

## COc1ccc(-c2nc(SCc3ccc(Cl)cc3)[nH]c(=O)c2CCO)cc1
[1]
  T/C: 95 % of control
[2]
  T/C: 101 % of control
[3]
  T/C: 111 % of control
[4]
  T/C: 96 % of control
[5]
  T/C: 95 % of control

## O=[N+]([O-])c1ccc(-c2ccc([N+](=O)[O-])cc2)cc1
[6]
  T/C: 98 % of control
[7]
  T/C: 124 % of control
[8]
  T/C: 95 % of control

## Nc1ccc(Cl)cc1
[9]
  T/C: 98 % of control
[10]
  T/C: 101 % of control
[11]
  T/C: 110 % of control

## N=C(N)S(=O)O
[12]
  T/C: 104 % of control

## ON=C1CCC(CC2CCCCC2)CC1 (stereo not given)
[13]
  T/C: 95 % of control
[14]
  T/C: 100 % of control
[15]
  T/C: 101 % of control

## Cc1cccc(NC(=O)CCc2ccc(N3C(N)=NC(N)=NC3(C)C)cc2)c1
dose: 3.13 mg/kg/injection, schedule: Q01DX009 (ip), vehicle: saline
  T/C: 102 % of control
dose: 6.25 mg/kg/injection, schedule: Q01DX009 (ip), vehicle: saline
  T/C: 94 % of control
dose: 12.5 mg/kg/injection, schedule: Q01DX009 (ip), vehicle: saline
  T/C: 97 % of control
dose: 25.0 mg/kg/injection, schedule: Q01DX009 (ip), vehicle: saline
  T/C: 96 % of control
dose: 50.0 mg/kg/injection, schedule: Q01DX009 (ip), vehicle: saline
  T/C: 103 % of control

## O=C(O)c1cc(Br)cc(Cl)c1Br
[6]
  T/C: 96 % of control
[7]
  T/C: 96 % of control

## CCCC(=O)Oc1ccc2c(C)cc(=O)oc2c1
[12]
  T/C: 102 % of control
[13]
  T/C: 94 % of control
[16]
  T/C: 104 % of control
[14]
  T/C: 100 % of control
[17]
  T/C: 106 % of control
[15]
  T/C: 100 % of control

## CCC(O)(C1=NC(C)(C)CO1)c1ccncc1Br (stereo not given)
[18]
  T/C: 100 % of control
[19]
  T/C: 94 % of control
[20]
  T/C: 97 % of control

## CN(CCO)c1c(Cl)c(=O)oc2ccc(Cl)cc12
[13]
  T/C: 90 % of control
[14]
  T/C: 92 % of control
[15]
  T/C: 89 % of control

## O=c1[nH]c(=O)n(CCc2cccs2)cc1F
[12]
  T/C: 98 % of control
[13]
  T/C: 93 % of control
[16]
  T/C: 96 % of control
[14]
  T/C: 96 % of control
[17]
  T/C: 98 % of control
[15]
  T/C: 95 % of control

## CCC(C(=O)c1ccccc1)C(O)(C(F)(F)F)C(F)(F)F (stereo not given)
[18]
  T/C: 96 % of control
[21]
  T/C: 94 % of control
[19]
  T/C: 106 % of control
[22]
  T/C: 104 % of control
[20]
  T/C: 95 % of control
[23]
  T/C: 104 % of control

## CC1=NCCN=C(C)C1
[3]
  T/C: 96 % of control
[5]
  T/C: 98 % of control
dose: 400.0 mg/kg/injection, schedule: Q04DX003 (ip), vehicle: saline
  T/C: 112 % of control

## O=S(=O)(O)c1cccc2nsnc12
[2]
  T/C: 107 % of control
[4]
  T/C: 109 % of control

## CC(C)CC(CC(C)C)NC(C)COC(=O)c1ccc(N)cc1 (stereo not given)
dose: 75.0 mg/kg/injection, schedule: Q01DX001 (ip), vehicle: saline
  T/C: 96 % of control

## CC(C)=CC(=O)NC(=O)NS(=O)(=O)c1ccc(C)cc1
[1]
  T/C: 91 % of control
[2]
  T/C: 95 % of control
[21]
  T/C: 115 % of control
[22]
  T/C: 104 % of control

## c1ccc(NNCC[P+](c2ccccc2)(c2ccccc2)c2ccccc2)cc1
dose: 15.0 mg/kg/injection, schedule: Q01DX001 (ip), vehicle: carboxymethylcellulose (CMC)
  T/C: 91 % of control

## O=C(OCCCl)c1ccccc1
dose: 60.0 mg/kg/injection, schedule: Q01DX009 (ip), vehicle: Klucel (hydroxypropylcellulose) (HPC)
  T/C: 103 % of control
[18]
  T/C: 106 % of control
[21]
  T/C: 101 % of control
dose: 120.0 mg/kg/injection, schedule: Q01DX009 (ip), vehicle: Klucel (hydroxypropylcellulose) (HPC)
  T/C: 100 % of control
[19]
  T/C: 98 % of control
[22]
  T/C: 101 % of control
dose: 240.0 mg/kg/injection, schedule: Q01DX009 (ip), vehicle: Klucel (hydroxypropylcellulose) (HPC)
  T/C: 94 % of control
[20]
  T/C: 98 % of control
[23]
  T/C: 101 % of control

## Cc1ccc(S(=O)(=O)Nc2ccc(NS(=O)(=O)c3ccc(C)cc3)cc2)cc1
dose: 100.0 mg/kg/injection, schedule: Q01DX009 (ip), vehicle: saline
  T/C: 97 % of control
[21]
  T/C: 105 % of control
dose: 200.0 mg/kg/injection, schedule: Q01DX009 (ip), vehicle: saline
  T/C: 94 % of control
[22]
  T/C: 95 % of control
dose: 400.0 mg/kg/injection, schedule: Q01DX009 (ip), vehicle: saline
  T/C: 94 % of control
[23]
  T/C: 101 % of control

## NC(CCSCc1ccc(N(CCCl)CCCl)cc1)C(=O)O (stereo not given)
dose: 3.0 mg/kg/injection, schedule: Q01DX Z (ip), vehicle: saline
  T/C: 123 % of control
dose: 8.0 mg/kg/injection, schedule: Q01DX Z (ip), vehicle: saline
  T/C: 113 % of control
dose: 12.0 mg/kg/injection, schedule: Q01DX Z (ip), vehicle: saline
  T/C: 113 % of control
dose: 36.0 mg/kg/injection, schedule: Q01DX Z (ip), vehicle: saline
  T/C: 114 % of control
dose: 54.0 mg/kg/injection, schedule: Q01DX Z (ip), vehicle: saline
  T/C: 103 % of control and 90 % of control
dose: 81.0 mg/kg/injection, schedule: Q01DX Z (ip), vehicle: saline
  T/C: 95 % of control
[9]
  T/C: 169 % of control
[10]
  T/C: 182 % of control
[11]
  T/C: 113 % of control

## CC(CNC(=O)CCOS(C)(=O)=O)CNC(=O)CCOS(C)(=O)=O
[9]
  T/C: 115 % of control
dose: 100.0 mg/kg/injection, schedule: Q04DX003 (ip), vehicle: other
  T/C: 105 % of control
dose: 132.0 mg/kg/injection, schedule: Q01DX009 (ip), vehicle: other
  T/C: 113 % of control
[10]
  T/C: 107 % of control
dose: 200.0 mg/kg/injection, schedule: Q01DX009 (ip), vehicle: other
  T/C: 122 % of control
dose: 200.0 mg/kg/injection, schedule: Q04DX003 (ip), vehicle: other
  T/C: 121 % of control
dose: 264.0 mg/kg/injection, schedule: Q04DX003 (ip), vehicle: saline
  T/C: 114 % of control
[11]
  T/C: 120 % of control

## O=c1[nH][nH]c(=O)c2cc3ccccc3cc12
dose: 62.5 mg/kg/injection, schedule: Q01DX009 (ip), vehicle: Klucel (hydroxypropylcellulose) (HPC)
  T/C: 98 % of control
dose: 125.0 mg/kg/injection, schedule: Q01DX009 (ip), vehicle: Klucel (hydroxypropylcellulose) (HPC)
  T/C: 105 % of control

## COc1ccc(OC(=O)Nc2cc(Cl)ccc2C)cc1
[2]
  T/C: 94 % of control
[4]
  T/C: 91 % of control
[24]
  T/C: 94 % of control

## COc1ccc([N+](=O)[O-])cc1NC(=O)Nc1cc(C)on1
[18]
  T/C: 91 % of control
[2]
  T/C: 96 % of control and 87 % of control
[6]
  T/C: 103 % of control and 91 % of control
[21]
  T/C: 92 % of control
[19]
  T/C: 95 % of control
[4]
  T/C: 98 % of control and 91 % of control
[7]
  T/C: 97 % of control and 91 % of control
[22]
  T/C: 89 % of control
[20]
  T/C: 86 % of control
[24]
  T/C: 95 % of control and 98 % of control
[8]
  T/C: 97 % of control
[23]
  T/C: 96 % of control

## O=C1COC(C(Cl)(Cl)Cl)CN1 (stereo not given)
dose: 100.0 mg/kg/injection, schedule: Q01DX001 (ip), vehicle: saline with Tween-80
  T/C: 108 % of control
dose: 200.0 mg/kg/injection, schedule: Q01DX001 (ip), vehicle: saline with Tween-80
  T/C: 105 % of control
dose: 400.0 mg/kg/injection, schedule: Q01DX001 (ip), vehicle: saline with Tween-80
  T/C: 103 % of control

## CCn1c2ccccc2c2nnc(NCCCO)nc21
dose: 100.0 mg/kg/injection, schedule: Q04DX002 (ip), vehicle: saline with Tween-80
  T/C: 96 % of control
dose: 100.0 mg/kg/injection, schedule: Q04DX002 (ip), vehicle: saline
  T/C: 101 % of control
dose: 200.0 mg/kg/injection, schedule: Q04DX002 (ip), vehicle: saline with Tween-80
  T/C: 100 % of control
dose: 200.0 mg/kg/injection, schedule: Q04DX002 (ip), vehicle: saline
  T/C: 97 % of control
dose: 400.0 mg/kg/injection, schedule: Q04DX002 (ip), vehicle: saline with Tween-80
  T/C: 94 % of control
dose: 400.0 mg/kg/injection, schedule: Q04DX002 (ip), vehicle: saline
  T/C: 101 % of control

Source: PubChem BioAssay AID248 (DTP/NCI, 2004)
